Values of other authors as cited in patent US7825150B2, “Compositions and methods for treating immunological and inflammatory diseases and disorders” (Lexicon Pharmaceuticals, Inc., priority 2007, dated 2010).
Where two headings read alike, the source gives them in different places.

Experiments:
[1] = tested on: adjuvant-induced arthritis (AA) model; settings: therapeutic setting, established disease state; majority of published studies
S1P lyase = biological target: T1, S1P lyase (Mus musculus, UniProt Q8R0X7); settings: administered to mice; Schwab et al. 2005
T1 construct: host or cells: mice, in vivo (endogenous enzyme)
T1 sequence (Q8R0X7 1-568): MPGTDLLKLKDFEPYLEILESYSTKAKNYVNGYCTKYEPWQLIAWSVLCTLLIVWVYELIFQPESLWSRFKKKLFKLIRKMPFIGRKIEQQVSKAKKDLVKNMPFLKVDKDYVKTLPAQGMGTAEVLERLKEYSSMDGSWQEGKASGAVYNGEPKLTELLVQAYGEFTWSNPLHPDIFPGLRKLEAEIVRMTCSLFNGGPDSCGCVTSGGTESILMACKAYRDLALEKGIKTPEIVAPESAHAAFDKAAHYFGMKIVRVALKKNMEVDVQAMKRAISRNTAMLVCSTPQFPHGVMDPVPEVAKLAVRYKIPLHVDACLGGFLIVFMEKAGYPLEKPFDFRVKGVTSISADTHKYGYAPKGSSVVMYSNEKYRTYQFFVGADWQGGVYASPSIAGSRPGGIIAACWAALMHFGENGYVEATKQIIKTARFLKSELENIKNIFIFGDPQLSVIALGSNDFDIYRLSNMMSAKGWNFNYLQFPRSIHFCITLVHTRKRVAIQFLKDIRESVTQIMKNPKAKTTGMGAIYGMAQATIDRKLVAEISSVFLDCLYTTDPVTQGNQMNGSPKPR

lymphocytes [2] = settings: administration to rats
lymphocytes [3] = settings: administration to mice
[4] = humans

S1P lyase activity (S1P lyase)	SMILES	effectiveness of MTX treatment alone in this model [1]	accumulation of mature T cells in the thymus (lymphocytes [2])	lymphopenia (lymphocytes [2])	accumulation of mature T cells in the thymus (lymphocytes [3])	lymphopenia (lymphocytes [3])	immunological effects [4]
–	CN(Cc1cnc2nc(N)nc(N)c2n1)c1ccc(C(=O)N[C@@H](CCC(=O)O)C(=O)O)cc1 [MTX, methotrexate]	not effective	–	–	–	–	–
inhibits S1P lyase activity	CC(=O)c1nc(C(O)C(O)C(O)CO)c[nH]1 (stereo not shown) [THI, 2-acetyl-4-tetrahydroxybutylimidazole]	–	causes the accumulation of mature T cells in the thymus	induces lymphopenia	causes the accumulation of mature T cells in the thymus	induces lymphopenia	no immunological effects
